Molecular target: T1, intracellular domain of DDR1 (Homo sapiens, UniProt Q08345)
T1 construct: the intracellular domain of DDR1 (in a final concentration of 5 ng/μL) (Carna Biosciences, Inc.); purchased Carna Biosciences, Inc
Experiment: Evaluation of DDR1 inhibition activity with HTRF KinEASE-TK kit
Type: biochemical
Details: DDR1 intracellular domain 5 ng/μL, ATP 25 μm/L, TK Substrate-biotin 1000 nmol/L, room temperature, one hour
Procedure: The DDR1 inhibition activity in the compounds of Examples 1 to 80 was evaluated with HTRF® KinEASE-TK kit (Cisbio Bioassays).
Each test substance was dissolved in dimethyl sulfoxide and then used for the evaluation as described below. Moreover, each of test substances and reagents was diluted in the kinase buffer (Cisbio Bioassays) prepared by adding thereto MgCl2, MnCl2, DTT, and the Supplemental Enzyme buffer (Cisbio Bioassays) to concentrations of 5 mmol/L, 0.5 mmol/L, 0.25 mmol/L, and 50 nmol/L, respectively, and then used. Each test substance (in DMSO in a final concentration of 1%), the intracellular domain of DDR1 (in a final concentration of 5 ng/μL) (Carna Biosciences, Inc.), the phosphate donor ATP (in final concentration of 25 μm/L) (Sigma), and the substrate TK Substrate-biotin (in a final concentration of 1000 nmol/L) (Cisbio Bioassays) were added to a 384-well black plate (Corning) and allowed to react at room temperature for one hour. After completion of the reaction, the TK Antibody-Cryptate (Cisbio Bioassays) and the Streptavidin-XL665 (Cisbio Bioassays) were added thereto and allowed to react at room temperature for one hour. In addition, the plate was provided with a well to which a test substance was not added, and with a well to which a test substance and the intracellular domain of DDR1 were […].
The fluorescence intensity in each well was measured using a multi-label counter (Envision, PerkinElmer; excitation wavelength: 320 nm, measurement wavelength: 665 nm and 620 nm) to calculate a ratio (the fluorescence intensity at 665 nm/the fluorescence intensity at 620 nm). The inhibition rate (%) of a test substance at each concentration was calculated based on the formula below: Inhibition rate (%)=([the ratio obtained from the well containing no test substance]−[the ratio from a well containing a test substance])/([the ratio obtained from the well containing no test substance]−[the ratio obtained from the well containing no intracellular domain of DDR1 and no test substance])×100.
The calculated inhibition rates were fitted to a sigmoidal dose-response curve by regression analysis using the Prism 5.04 (GraphPad Software, Inc.) to calculate the IC50 value of the test substance.

T1 sequence (Q08345 439-913 limits assumed): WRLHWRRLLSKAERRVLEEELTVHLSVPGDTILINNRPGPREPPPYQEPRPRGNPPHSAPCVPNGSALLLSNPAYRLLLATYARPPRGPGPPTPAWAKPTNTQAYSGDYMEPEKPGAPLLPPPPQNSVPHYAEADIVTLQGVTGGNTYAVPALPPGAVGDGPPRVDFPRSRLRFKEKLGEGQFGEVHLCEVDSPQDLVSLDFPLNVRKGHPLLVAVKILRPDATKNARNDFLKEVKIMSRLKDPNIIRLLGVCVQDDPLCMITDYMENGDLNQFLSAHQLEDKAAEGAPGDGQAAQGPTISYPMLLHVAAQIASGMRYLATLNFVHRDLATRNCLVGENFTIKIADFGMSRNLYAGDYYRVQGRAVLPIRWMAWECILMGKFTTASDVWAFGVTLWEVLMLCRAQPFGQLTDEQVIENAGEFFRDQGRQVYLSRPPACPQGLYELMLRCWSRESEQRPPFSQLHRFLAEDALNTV

CNc1cc(O[C@H]2CC[C@H](NC(=O)Nc3cc(C(F)(F)F)cc(CO)c3OC)CC2)ncn1 [Example 71, 1-(3-(hydroxymethyl)-2-methoxy-5-(trifluoromethyl)phenyl)-3-(trans-4-((6-(methylamino)pyrimidin-4-yl)oxy)cyclohexyl)urea]
IC50: 10.8 nM

O=C(Nc1cc(C(F)(F)F)ccc1N1CCOCC1)N[C@H]1CC[C@H](Oc2ncccn2)CC1 [Example 57, 1-(2-morpholino-5-(trifluoromethyl)phenyl)-3-(trans-4-(pyrimidin-2-yloxy)cyclohexyl)urea]
IC50: 653 nM

O=C(Nc1cc(C(F)(F)F)ccc1OC1COC1)N[C@H]1CC[C@H](Oc2ncccn2)CC1 [Example 13, 1-(2-(oxetan-3-yloxy)-5-(trifluoromethyl)phenyl)-3-(trans-4-(pyrimidin-2-yloxy)cyclohexyl)urea]
IC50: 57.6 nM

O=C(Nc1cccc(C(F)(F)F)c1)N[C@H]1CC[C@H](OCc2ccncc2)CC1 [Example 22, 1-(trans-4-(pyridin-4-ylmethoxy)cyclohexyl)-3-(3-(trifluoromethyl)phenyl)urea]
IC50: 234 nM

CNc1nccc(O[C@H]2CC[C@H](NC(=O)Nc3cc(OC(F)(F)F)ccc3OC)CC2)n1 [Example 3, 1-(2-methoxy-5-(trifluoromethoxy)phenyl)-3-(trans-4-((2-(methylamino)pyrimidin-4-yl)oxy)cyclohexyl)urea]
IC50: 141 nM

COc1c(CO)cc(C(F)(F)F)cc1NC(=O)N[C@H]1CC[C@H](Oc2ccnc(-c3cccnc3)n2)CC1 [Example 45, 1-(3-(hydroxymethyl)-2-methoxy-5-(trifluoromethyl)phenyl)-3-(trans-4-((2-(pyridin-3-yl)pyrimidin-4-yl)oxy)cyclohexyl)urea]
IC50: 33.8 nM

Cc1ccc(C(F)(F)F)cc1NC(=O)N[C@H]1CC[C@H](OCc2ccncc2)CC1 [Example 25, 1-(2-methyl-5-(trifluoromethyl)phenyl)-3-(trans-4-(pyridin-4-ylmethoxy)cyclohexyl)urea]
IC50: 421 nM

COc1ccc(C(F)(F)F)cc1NC(=O)N[C@H]1CC[C@H](Oc2ccnc(-c3cccnc3)n2)CC1 [Example 37, 1-(2-methoxy-5-(trifluoromethyl)phenyl)-3-(trans-4-((2-(pyridin-3-yl)pyrimidin-4-yl)oxy)cyclohexyl)urea]
IC50: 149 nM

O=C(Nc1cc(C(F)(F)F)ccc1N1CCOCC1)N[C@H]1CC[C@H](OCc2ccncc2)CC1 [Example 28, 1-(2-morpholino-5-(trifluoromethyl)phenyl)-3-(trans-4-(pyridin-4-ylmethoxy)cyclohexyl)urea]
IC50: 103 nM

CNc1ccnc(O[C@H]2CC[C@H](NC(=O)Nc3cc(OC(F)(F)F)ccc3OC)CC2)n1 [Example 54, 1-(2-methoxy-5-(trifluoromethoxy)phenyl)-3-(trans-4-((4-(methylamino)pyrimidin-2-yl)oxy)cyclohexyl)urea]
IC50: 95.1 nM

CC(=O)N1CCC(Oc2ccc(C(F)(F)F)cc2NC(=O)N[C@H]2CC[C@H](OCc3ccncc3)CC2)CC1 [Example 34, 1-(2-((1-acetylpiperidin-4-yl)oxy)-5-(trifluoromethyl)phenyl)-3-(trans-4-(pyridin-4-ylmethoxy)cyclohexyl)urea]
IC50: 51 nM

COc1ccc(S(F)(F)(F)(F)F)cc1NC(=O)N[C@H]1CC[C@H](OCc2ccncc2)CC1 [Example 26, 1-(2-methoxy-5-(pentafluorosulfanyl)phenyl)-3-(trans-4-(pyridin-4-ylmethoxy)cyclohexyl)urea]
IC50: 82.7 nM

COc1ccc(OC(F)(F)F)cc1NC(=O)N[C@H]1CC[C@H](OCc2cccnc2)CC1 [Example 68, 1-(2-methoxy-5-(trifluoromethoxy)phenyl)-3-(trans-4-(pyridin-3-ylmethoxy)cyclohexyl)urea]
IC50: 16.6 nM

COc1c(CO)cc(C(F)(F)F)cc1NC(=O)N[C@H]1CC[C@H](OCc2ccncc2)CC1 [Example 21, 1-(3-(hydroxymethyl)-2-methoxy-5-(trifluoromethyl)phenyl)-3-(trans-4-(pyridin-4-ylmethoxy)cyclohexyl)urea]
IC50: 39.3 nM

COc1ccc(S(F)(F)(F)(F)F)cc1NC(=O)N[C@H]1CC[C@H](Oc2ccnc(N3CCOCC3)n2)CC1 [Example 4, 1-(2-methoxy-5-(pentafluorosulfanyl)phenyl)-3-(trans-4-((2-morpholinopyrimidin-4-yl)oxy)cyclohexyl)urea]
IC50: 427 nM

O=C(Nc1cc(C(F)(F)F)ccc1O[C@@H]1CCNC1)N[C@H]1CC[C@H](OCc2ccncc2)CC1 [Example 35, 1-(trans-4-(pyridin-4-ylmethoxy)cyclohexyl)-3-(2-((R)-pyrrolidin-3-yloxy)-5-(trifluoromethyl)phenyl)urea]
IC50: 88.6 nM

COc1ccc(OC(F)(F)F)cc1NC(=O)N[C@H]1CC[C@H](Oc2ccncn2)CC1 [Example 2, 1-(2-methoxy-5-(trifluoromethoxy)phenyl)-3-(trans-4-(pyrimidin-4-yloxy)cyclohexyl)urea]
IC50: 229 nM

COc1ccc(OC(F)(F)F)cc1NC(=O)N[C@H]1CC[C@H](Oc2ccnc(-c3cccnc3)n2)CC1 [Example 39, 1-(2-methoxy-5-(trifluoromethoxy)phenyl)-3-(trans-4-((2-(pyridin-3-yl)pyrimidin-4-yl)oxy)cyclohexyl)urea]
IC50: 236 nM

O=C(Nc1cc(C(F)(F)F)ccc1OC1COC1)N[C@H]1CC[C@H](Oc2ccnc(-c3cccnc3)n2)CC1 [Example 38, 1-(2-(oxetan-3-yloxy)-5-(trifluoromethyl)phenyl)-3-(trans-4-((2-(pyridin-3-yl)pyrimidin-4-yl)oxy)cyclohexyl)urea]
IC50: 61 nM

COc1c(CO)cc(OC(F)(F)F)cc1NC(=O)N[C@H]1CC[C@H](Oc2ccnc(N3CCOCC3)n2)CC1 [Example 50, 1-(3-(hydroxymethyl)-2-methoxy-5-(trifluoromethoxy)phenyl)-3-(trans-4-((2-morpholinopyrimidin-4-yl)oxy)cyclohexyl)urea]
IC50: 35.1 nM

O=C(Nc1cc(C(F)(F)F)ccc1OC1COC1)N[C@H]1CC[C@H](Oc2ccnc(-c3ccncc3)n2)CC1 [Example 47, 1-(2-(oxetan-3-yloxy)-5-(trifluoromethyl)phenyl)-3-(trans-4-((2-(pyridin-4-yl)pyrimidin-4-yl)oxy)cyclohexyl)urea]
IC50: 56.6 nM

COc1ccc(OC(F)(F)F)cc1NC(=O)N[C@H]1CC[C@H](Oc2ccnc(N3CCOCC3)n2)CC1 [Example 1, 1-(2-methoxy-5-(trifluoromethoxy)phenyl)-3-(trans-4-((2-morpholinopyrimidin-4-yl)oxy)cyclohexyl)urea]
IC50: 476 nM

COc1c(CO)cc(OC(F)(F)F)cc1NC(=O)N[C@H]1CC[C@H](OCc2cccnc2)CC1 [Example 67, 1-(3-(hydroxymethyl)-2-methoxy-5-(trifluoromethoxy)phenyl)-3-(trans-4-(pyridin-3-ylmethoxy)cyclohexyl)urea]
IC50: 9.69 nM

COc1ccc(C(F)(F)F)cc1NC(=O)N[C@H]1CC[C@H](OCc2cccnc2)CC1 [Example 69, 1-(2-methoxy-5-(trifluoromethyl)phenyl)-3-(trans-4-(pyridin-3-ylmethoxy)cyclohexyl)urea]
IC50: 17.2 nM

COc1ccc(C(F)(F)F)cc1NC(=O)N[C@H]1CC[C@H](Oc2nccc(-c3cccnc3)n2)CC1 [Example 40, 1-(2-methoxy-5-(trifluoromethyl)phenyl)-3-(trans-4-((4-(pyridin-3-yl)pyrimidin-2-yl)oxy)cyclohexyl)urea]
IC50: 98 nM

O=C(Nc1cc(S(F)(F)(F)(F)F)ccc1OC1COC1)N[C@H]1CC[C@H](Oc2ncccn2)CC1 [Example 14, 1-(2-(oxetan-3-yloxy)-5-(pentafluorosulfanyl)phenyl)-3-(trans-4-(pyrimidin-2-yloxy)cyclohexyl)urea]
IC50: 76.7 nM

COc1ccc(OC(F)(F)F)cc1NC(=O)N[C@H]1CC[C@H](Oc2ncccn2)CC1 [Example 9, 1-(2-methoxy-5-(trifluoromethoxy)phenyl)-3-(trans-4-(pyrimidin-2-yloxy)cyclohexyl)urea]
IC50: 349 nM

CC(=O)N1CC(Oc2ccc(C(F)(F)F)cc2NC(=O)N[C@H]2CC[C@H](OCc3ccncc3)CC2)C1 [Example 33, 1-(2-((1-acetylazetidin-3-yl)oxy)-5-(trifluoromethyl)phenyl)-3-(trans-4-(pyridin-4-ylmethoxy)cyclohexyl)urea]
IC50: 28 nM

O=C(Nc1cc(C(F)(F)F)ccc1Cl)N[C@H]1CC[C@H](OCc2ccncc2)CC1 [Example 29, 1-(2-chloro-5-(trifluoromethyl)phenyl)-3-(trans-4-(pyridin-4-ylmethoxy)cyclohexyl)urea]
IC50: 133 nM

O=C(Nc1cc(C(F)(F)F)ccc1Cl)N[C@H]1CC[C@H](Oc2ncccn2)CC1 [Example 58, 1-(2-chloro-5-(trifluoromethyl)phenyl)-3-(trans-4-(pyrimidin-2-yloxy)cyclohexyl)urea]
IC50: 528 nM

Source: patent US10280145B2 (Toray Industries, Inc., priority 2015, dated 2019)
